The values below come from article doi:10.1101/2025.01.23.634444v1, “The histidine kinase VraS orchestrates the cell-wall stress response in Staphylococcus aureus via its direct interaction with glycopeptides and β-lactams” (biorxiv, 2025).

Assay [1] has as its target T1, VraS (VraS-H6x) (Staphylococcus aureus, UniProt A0A0H2XJC3). As to the kind of experiment: saturation transfer difference NMR. The assay is classed as binding. Details: full-length, C-terminal His6 tag kept, codon-optimised synthetic gene, pET24a(+), expressed in E. coli BL21 Star (DE3) membranes, purified in DDM, reconstituted in liposomes; 347 residues, 40,867 Da tagged; dimer in DDM. As to conditions: 20 µM VraS, 400 µM ampicillin, sodium phosphate pH 7.4, 280 mM NaCl, 6 mM KCl, 0.01% DDM, 10% D2O.

Assay [2] concerns the target T1, VraS (VraS-H6x). The assay is described as follows: biochemical.

For orientation: IC50 means the concentration that inhibits the measured activity by half.

T1 sequence (A0A0H2XJC3 entry or part of it): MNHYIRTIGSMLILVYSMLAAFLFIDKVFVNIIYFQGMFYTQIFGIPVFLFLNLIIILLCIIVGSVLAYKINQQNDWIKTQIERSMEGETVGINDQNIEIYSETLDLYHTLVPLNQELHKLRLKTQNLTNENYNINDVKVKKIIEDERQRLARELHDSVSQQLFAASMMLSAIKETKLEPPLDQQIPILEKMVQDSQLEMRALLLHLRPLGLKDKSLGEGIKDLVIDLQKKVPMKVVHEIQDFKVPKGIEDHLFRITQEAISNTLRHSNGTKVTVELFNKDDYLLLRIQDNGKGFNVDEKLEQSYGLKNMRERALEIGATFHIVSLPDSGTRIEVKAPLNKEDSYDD

For `CC1(C)S[C@@H]2[C@H](NC(=O)[C@H](N)c3ccccc3)C(=O)N2[C@H]1C(=O)O` [ampicillin], the STD entry at VraS (VraS-H6x) [1] is given as “the difference spectrum demonstrated the interaction of ampicillin with VraS”.

In the case of `CN[C@H](CC(C)C)C(=O)N[C@H]1C(=O)N[C@@H](CC(N)=O)C(=O)N[C@H]2C(=O)N[C@H]3C(=O)N[C@H](C(=O)N[C@H](C(=O)O)c4cc(O)cc(O)c4-c4cc3ccc4O)[C@H](O)c3ccc(c(Cl)c3)Oc3cc2cc(c3O[C@@H]2O[C@H](CO)[C@@H](O)[C@H](O)[C@H]2O[C@H]2C[C@](C)(N)[C@H](O)[C@H](C)O2)Oc2ccc(cc2Cl)[C@H]1O` [vancomycin], on VraS (VraS-H6x) [2], the midpoint of inhibition, the IC50, lay at 1600 ± 300 µM.
